Experiment [1] deals with ASH1L SET domain (2069–2288) (Homo sapiens, UniProt Q9NR48). The experiment in a line: Isothermal titration calorimetry (ITC). Conditions: for kcal/mole of injectant: ITC isotherm. (Isothermal titration calorimetry measures the heat released or taken up as one component is titrated into another.)
Experimental: All samples were extensively degassed by vacuum aspiration for 20 min prior to measurements. […] All titration data were analyzed with a single-site fitting model using Origin 7.0.
The target in experiment [2] is ASH1L (amino acids 2046–2330) (Homo sapiens, UniProt Q9NR48). The experiment in a line: Histone methyltransferase (HMT) assay. Conditions: for IC50: IC50, HMT assay with nucleosomes as substrate, mean ± s.d. from two independent experiments.
Experimental: The mixtures of ASH1L and compounds were incubated at room temperature for 1 h. […] The reaction was continued for 1 h at room temperature, then quenched by addition of 10% Trichloroacetic acid (TCA) and then transferred to 96-well filter plates (Millipore sigma, MSFBN6B), washed twice with 10% TCA and then once with 200-proof ethanol. After extensive drying, 70 µL of Microscint-O scintillant (PerkinElmer) was added and counts per minute (CPM) were measured using a MicroBeta microplate counter (PerkinElmer). Titration curves were plotted using Prism (GraphPad Prism 8.0.0.) and IC50 values were calculated.
[3] abbreviates: Log[compound] (M) -5.30642 (4: -5.30643).

Several values for one entry are separate records, joined by “and”; a condition that tells them apart may be missing. Equal values may be shown once.

In the case of `NCc1ccc2c(-c3cccc(C(N)=S)c3)cn(CCO)c2c1` [AS-5], the Kd in experiment [1] was 6.2 µM. In addition, in experiment [1] (ITC), the “N (stoichiometry of binding)” value was found to be 1.1. The kcal/mole of injectant in experiment [1] (ASH1L-AS-5 molar ratio 0.12083) is -11648.3 kcal/mol; in experiment [1] (ASH1L-AS-5 molar ratio 0.18186) it was -13231.7 kcal/mol; in experiment [1] (ASH1L-AS-5 molar ratio 0.2433), -11678.6 kcal/mol; in experiment [1] (ASH1L-AS-5 molar ratio 0.30515) it was -11475.1 kcal/mol; in experiment [1] (ASH1L-AS-5 molar ratio 0.36741), -11317.2 kcal/mol; in experiment [1] (ASH1L-AS-5 molar ratio 0.43008), -10998.9 kcal/mol. In addition, the kcal/mole of injectant is -10679.7 kcal/mol in experiment [1] (ASH1L-AS-5 molar ratio 0.49316); -10389.6 kcal/mol in experiment [1] (ASH1L-AS-5 molar ratio 0.55666); -10042.7 kcal/mol in experiment [1] (ASH1L-AS-5 molar ratio 0.62056); -9579.7 kcal/mol in experiment [1] (ASH1L-AS-5 molar ratio 0.68487); -9123.74 kcal/mol in experiment [1] (ASH1L-AS-5 molar ratio 0.7496); -8548.86 kcal/mol in experiment [1] (ASH1L-AS-5 molar ratio 0.81473). In addition, the kcal/mole of injectant in experiment [1] (ASH1L-AS-5 molar ratio 0.88027) was -7938.47 kcal/mol; in experiment [1] (ASH1L-AS-5 molar ratio 0.94623) it was -7340.59 kcal/mol; in experiment [1] (ASH1L-AS-5 molar ratio 1.0126) it was -6928.78 kcal/mol; in experiment [1] (ASH1L-AS-5 molar ratio 1.07937), -5852.59 kcal/mol; in experiment [1] (ASH1L-AS-5 molar ratio 1.14656), -5058.91 kcal/mol; in experiment [1] (ASH1L-AS-5 molar ratio 1.21416), -4429.92 kcal/mol. The kcal/mole of injectant is -3902.54 kcal/mol in experiment [1] (ASH1L-AS-5 molar ratio 1.28216); -3390.49 kcal/mol in experiment [1] (ASH1L-AS-5 molar ratio 1.35058); -2944.08 kcal/mol in experiment [1] (ASH1L-AS-5 molar ratio 1.41941); -2536.04 kcal/mol in experiment [1] (ASH1L-AS-5 molar ratio 1.48865); -2250.86 kcal/mol in experiment [1] (ASH1L-AS-5 molar ratio 1.5583); -1941.24 kcal/mol in experiment [1] (ASH1L-AS-5 molar ratio 1.62836). Further, the kcal/mole of injectant was -1790.53 kcal/mol in experiment [1] (ASH1L-AS-5 molar ratio 1.69883), -1545.36 kcal/mol in experiment [1] (ASH1L-AS-5 molar ratio 1.76971), -1413.63 kcal/mol in experiment [1] (ASH1L-AS-5 molar ratio 1.841) and -1226.06 kcal/mol in experiment [1] (ASH1L-AS-5 molar ratio 1.9127). Besides, in experiment [2], the “improvement of the activity versus the original fragment hit” value is “over 200 fold”. This compound also showed an IC50 in experiment [2] of 4 µM. Further, the “% activity” value in experiment [2] (Log[compound] (M) -3.69897) was 2.662% and 1.923%; in experiment [2] (Log[compound] (M) -4.17609), 6.814% and 8.134%; in experiment [2] (Log[compound] (M) -4.65321) it was 17.9312% and 20.7044%; in experiment [2] (Log[compound] (M) -5.13033), 34.0137% and 31.5644%; in experiment [2] (Log[compound] (M) -5.60746), 45.8867% and 60.6988%; in experiment [2] (Log[compound] (M) -6.08458), 80.7749% and 70.6538%. The “% activity” value is 92.8804% and 81.5471% in experiment [2] (Log[compound] (M) -6.5617); 105.285% and 87.6496% in experiment [2] (Log[compound] (M) -7.03882).
Take `NC(=S)c1cccc(-c2c[nH]c3ccccc23)c1` [compound 2]: the IC50 in experiment [2] is 50 µM and 50.5 µM. The “% activity” value is -0.3683% and -0.3506% in experiment [2] (Log[compound] (M) -2.92082); 16.0357% and 15.8766% in experiment [2] (Log[compound] (M) -3.39794); 38.4321% and 41.7641% in experiment [2] (Log[compound] (M) -3.87506); 49.8512% and 57.5848% in experiment [2] (Log[compound] (M) -4.35218); 59.6441% and 71.2665% in experiment [2] (Log[compound] (M) -4.8293); 79.3978% and 82.615% in experiment [2] (setting [3]). Also, the “% activity” value in experiment [2] (Log[compound] (M) -5.78355) is 85.6112% and 97.322%; in experiment [2] (Log[compound] (M) -6.26067), 88.298% and 98.5328%.
Consider `NC(=S)c1cccc(-c2cn(CCO)c3ccccc23)c1` [compound 3], for which the IC50 in experiment [2] stood at 15 µM. For the same compound, the “% activity” value in experiment [2] (Log[compound] (M) -3.69897) was 9.186% and 9.699%; in experiment [2] (Log[compound] (M) -4.17609), 18.9348% and 13.291%; in experiment [2] (Log[compound] (M) -4.65321), 40.9235% and 30.2223%; in experiment [2] (Log[compound] (M) -5.13033), 68.7027% and 45.0281%; in experiment [2] (Log[compound] (M) -5.60746), 106.01% and 80.1368%; in experiment [2] (Log[compound] (M) -6.08458), 97.0728% and 88.0528%. Besides, in experiment [2] (Log[compound] (M) -6.5617), the “% activity” value was 107.183% and 116.125%.
On to `NCc1ccc2c(-c3cccc(C(N)=S)c3)c[nH]c2c1` [compound 4], for which, in experiment [2], the IC50 was 23 µM and 23.5 µM. Also, the “% activity” value in experiment [2] (Log[compound] (M) -3.39794) was 6.033% and 2.5275%; in experiment [2] (Log[compound] (M) -3.87506), 27.0096% and 20.8578%; in experiment [2] (Log[compound] (M) -4.35218) it was 40.1717% and 36.6844%; in experiment [2] (Log[compound] (M) -4.8293), 67.3184% and 49.0775%; in experiment [2] (setting [3]) it was 79.0319% and 80.9812%; in experiment [2] (Log[compound] (M) -5.78355) it was 102.423% and 86.0958%. The “% activity” value in experiment [2] (Log[compound] (M) -6.26067) is 109.022% and 106.93%; in experiment [2] (Log[compound] (M) -6.73779), 106.089% and 90.3699%.

One may read the Kd as the free concentration of one partner at which half of the binding sites on the other are occupied at equilibrium, for simple one-to-one binding. High values mean a looser complex, low ones a tighter complex. A word on the IC50: it is the concentration at which inhibition is half-maximal.

(Values after article PMC8121805, “Discovery of first-in-class inhibitors of ASH1L histone methyltransferase with anti-leukemic activity” (Nature Communications, 2021).)
